Data on 2 molecules can be found in US9598414B2, “Substituted benzo[5,6]azepino[3,2,1-hi]pyrido[4,3-b]indoles and substituted benzo[6,7][1,4]oxazepino[2,3,4-hi]pyrido[4,3-b]indoles for treating CNS disorders” (Daya Drug Discoveries, Inc., priority 2013, dated 2017).

What is called Ki is the dissociation constant of the complex between target and ligand, obtained from inhibition or displacement. Low values mean tighter binding, high ones weaker binding.

In one assay the target is Serotonin 5-HT7 (Homo sapiens, UniProt P34969). Nature of the assay: Receptor binding, 5-HT7. Conditions: for Ki: 5-HT7.
Chain of Serotonin 5-HT7 (P34969 whole entry): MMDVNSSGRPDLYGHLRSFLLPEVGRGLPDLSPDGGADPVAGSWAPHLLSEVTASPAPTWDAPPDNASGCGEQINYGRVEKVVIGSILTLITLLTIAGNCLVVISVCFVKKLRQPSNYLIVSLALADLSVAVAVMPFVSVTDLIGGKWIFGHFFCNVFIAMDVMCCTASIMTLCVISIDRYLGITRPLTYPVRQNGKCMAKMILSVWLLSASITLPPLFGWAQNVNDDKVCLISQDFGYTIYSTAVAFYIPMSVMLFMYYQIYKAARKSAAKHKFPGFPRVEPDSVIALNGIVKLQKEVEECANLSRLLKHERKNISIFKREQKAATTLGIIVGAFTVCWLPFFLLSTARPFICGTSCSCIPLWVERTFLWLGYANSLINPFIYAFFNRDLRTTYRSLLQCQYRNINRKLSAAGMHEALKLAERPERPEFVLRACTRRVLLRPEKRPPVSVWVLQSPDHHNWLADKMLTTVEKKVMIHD
For a further assay, the target named is Serotonin 5-HT1B (Homo sapiens, UniProt P28222). The assay can be described thus: Receptor binding, 5-HT1B.
Chain of Serotonin 5-HT1B (P28222 whole entry): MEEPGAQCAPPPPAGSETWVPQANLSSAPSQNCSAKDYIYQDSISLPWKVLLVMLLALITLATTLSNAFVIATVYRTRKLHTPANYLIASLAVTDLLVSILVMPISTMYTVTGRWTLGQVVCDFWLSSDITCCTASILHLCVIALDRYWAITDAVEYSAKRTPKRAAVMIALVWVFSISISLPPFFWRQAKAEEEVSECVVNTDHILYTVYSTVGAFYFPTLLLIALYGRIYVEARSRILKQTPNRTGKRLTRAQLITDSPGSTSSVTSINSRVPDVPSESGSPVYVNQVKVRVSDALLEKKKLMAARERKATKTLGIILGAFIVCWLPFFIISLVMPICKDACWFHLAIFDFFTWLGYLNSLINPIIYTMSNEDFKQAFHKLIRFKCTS
The target in a further assay is Histamine H2 (Homo sapiens, UniProt P25021). The assay can be described thus: Receptor binding, H2.
Chain of Histamine H2 (P25021 whole entry): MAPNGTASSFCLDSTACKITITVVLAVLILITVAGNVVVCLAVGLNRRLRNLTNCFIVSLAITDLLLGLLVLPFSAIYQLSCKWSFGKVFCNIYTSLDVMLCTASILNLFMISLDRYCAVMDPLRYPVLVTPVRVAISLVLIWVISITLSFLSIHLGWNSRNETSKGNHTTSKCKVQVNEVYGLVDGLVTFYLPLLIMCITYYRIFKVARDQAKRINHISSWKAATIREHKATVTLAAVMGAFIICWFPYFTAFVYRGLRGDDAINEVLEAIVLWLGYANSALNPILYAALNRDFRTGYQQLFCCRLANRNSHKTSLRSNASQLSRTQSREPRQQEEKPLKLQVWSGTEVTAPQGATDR
A further assay concerns the target Muscarinic M1 (Homo sapiens, UniProt P11229). The assay can be described thus: Receptor binding, M1.
For a further assay, the target named is T1, α-Adrenergic α2B (Homo sapiens, UniProt P18089).
T1 sequence (P18089 1-450): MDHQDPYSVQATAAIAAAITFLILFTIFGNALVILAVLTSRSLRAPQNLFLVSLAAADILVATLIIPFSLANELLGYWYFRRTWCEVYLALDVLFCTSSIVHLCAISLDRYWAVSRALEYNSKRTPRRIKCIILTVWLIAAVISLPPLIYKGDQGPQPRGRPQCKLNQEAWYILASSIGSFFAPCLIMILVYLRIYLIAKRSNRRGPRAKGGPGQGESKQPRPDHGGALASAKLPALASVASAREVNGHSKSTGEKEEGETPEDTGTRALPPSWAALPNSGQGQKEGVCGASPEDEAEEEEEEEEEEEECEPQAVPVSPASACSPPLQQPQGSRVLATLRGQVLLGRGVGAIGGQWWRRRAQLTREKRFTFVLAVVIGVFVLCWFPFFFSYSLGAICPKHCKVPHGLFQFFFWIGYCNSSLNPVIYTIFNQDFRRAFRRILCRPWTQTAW
The assay can be described thus: Receptor binding, α2B.

The next assay addresses T2, Serotonin 5-HT1A (Homo sapiens, UniProt P08908).
T2 sequence (P08908 1-422): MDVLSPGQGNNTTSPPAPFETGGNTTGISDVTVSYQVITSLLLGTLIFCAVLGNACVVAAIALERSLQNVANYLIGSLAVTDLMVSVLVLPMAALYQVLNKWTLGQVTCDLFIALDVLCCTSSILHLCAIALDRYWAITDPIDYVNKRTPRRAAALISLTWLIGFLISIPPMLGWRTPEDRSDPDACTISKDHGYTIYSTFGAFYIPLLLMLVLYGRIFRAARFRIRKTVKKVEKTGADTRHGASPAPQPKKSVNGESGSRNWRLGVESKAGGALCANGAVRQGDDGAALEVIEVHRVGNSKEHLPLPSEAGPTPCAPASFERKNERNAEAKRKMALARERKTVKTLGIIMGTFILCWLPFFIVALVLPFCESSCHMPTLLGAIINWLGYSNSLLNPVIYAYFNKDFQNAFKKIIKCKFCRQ
The assay can be described thus: Receptor binding, 5-HT1A.

For the next assay, the target named is T3, Serotonin 5-HT2C (Homo sapiens, UniProt P28335).
T3 sequence (P28335 33-458): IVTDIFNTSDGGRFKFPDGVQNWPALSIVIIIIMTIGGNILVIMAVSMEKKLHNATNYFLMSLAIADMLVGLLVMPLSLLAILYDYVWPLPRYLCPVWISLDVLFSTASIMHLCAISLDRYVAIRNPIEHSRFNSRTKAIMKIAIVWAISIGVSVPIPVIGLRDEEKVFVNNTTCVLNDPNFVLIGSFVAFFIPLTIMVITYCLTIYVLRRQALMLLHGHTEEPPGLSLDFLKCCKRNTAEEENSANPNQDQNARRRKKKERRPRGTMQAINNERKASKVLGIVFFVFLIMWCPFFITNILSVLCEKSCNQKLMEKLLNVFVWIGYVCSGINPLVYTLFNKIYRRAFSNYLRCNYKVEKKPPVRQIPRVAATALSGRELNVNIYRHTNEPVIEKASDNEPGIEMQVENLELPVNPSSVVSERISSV
Nature of the assay: Receptor binding, 5-HT2C. Conditions: 5-HT2C.

For a further assay, the target named is Serotonin 5-HT5A (Homo sapiens, UniProt P47898). Nature of the assay: Receptor binding, 5-HT5A.
For another assay, the target named is Dopamine D2 (Homo sapiens, UniProt P14416). Nature of the assay: Receptor binding, D2.
The target of a further assay is Serotonin 5-HT6 (Homo sapiens, UniProt P50406). Nature of the assay: Receptor binding, 5-HT6. Particulars: for Ki: 5-HT6.
Chain of Serotonin 5-HT6 (P50406 whole entry): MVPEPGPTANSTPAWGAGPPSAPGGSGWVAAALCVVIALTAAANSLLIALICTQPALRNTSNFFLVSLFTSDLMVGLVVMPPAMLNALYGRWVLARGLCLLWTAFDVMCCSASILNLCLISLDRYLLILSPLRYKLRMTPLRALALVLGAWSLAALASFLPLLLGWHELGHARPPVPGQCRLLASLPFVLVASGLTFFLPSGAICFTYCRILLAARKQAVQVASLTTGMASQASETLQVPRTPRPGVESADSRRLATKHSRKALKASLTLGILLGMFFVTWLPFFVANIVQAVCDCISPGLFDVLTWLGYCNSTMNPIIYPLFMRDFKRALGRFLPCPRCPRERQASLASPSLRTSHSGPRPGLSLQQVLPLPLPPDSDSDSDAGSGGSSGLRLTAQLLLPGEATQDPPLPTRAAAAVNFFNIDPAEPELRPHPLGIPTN
Another assay has as its target Sigma σ2 (Homo sapiens, UniProt Q5BJF2). Nature of the assay: Receptor binding, σ2. Conditions: σ2.
A further assay has as its target Muscarinic M3 (Homo sapiens, UniProt P20309). The assay can be described thus: Receptor binding, M3.
The next assay concerns the target Serotonin 5-HT1E (Homo sapiens, UniProt P28566). Nature of the assay: Receptor binding, 5-HT1E.
The next assay concerns the target Serotonin 5-HT2B (Homo sapiens, UniProt P41595). The assay can be described thus: Receptor binding, 5-HT2B.
Another assay concerns the target T4, α-Adrenergic α2A (Homo sapiens, UniProt P08913).
T4 sequence (P08913 1-465): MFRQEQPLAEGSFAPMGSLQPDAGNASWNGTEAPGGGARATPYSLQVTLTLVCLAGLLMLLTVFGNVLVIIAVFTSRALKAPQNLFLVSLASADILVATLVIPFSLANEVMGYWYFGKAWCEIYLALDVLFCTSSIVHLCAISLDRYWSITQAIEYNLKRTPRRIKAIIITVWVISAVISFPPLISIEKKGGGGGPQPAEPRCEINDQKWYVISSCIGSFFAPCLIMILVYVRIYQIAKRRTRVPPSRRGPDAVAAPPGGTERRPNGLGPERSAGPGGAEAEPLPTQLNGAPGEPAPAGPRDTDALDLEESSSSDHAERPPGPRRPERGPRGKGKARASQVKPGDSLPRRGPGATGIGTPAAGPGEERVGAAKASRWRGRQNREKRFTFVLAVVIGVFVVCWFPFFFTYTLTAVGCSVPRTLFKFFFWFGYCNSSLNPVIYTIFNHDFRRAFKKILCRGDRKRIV
Nature of the assay: Receptor binding, α2A.

For another assay, the target named is α-Adrenergic α1D (Homo sapiens, UniProt P25100). Nature of the assay: Receptor binding, α1D.
A further assay concerns the target α-Adrenergic α1B (Homo sapiens, UniProt P35368). Nature of the assay: Receptor binding, α1B.
In a further assay the target is Muscarinic M5 (Homo sapiens, UniProt P08912). The assay can be described thus: Receptor binding, M5.
Another assay deals with Opioid κ (Homo sapiens, UniProt P41145). Nature of the assay: Receptor binding, opioid κ.
For another assay, the target named is Serotonin 5-HT1D (Homo sapiens, UniProt P28221). Nature of the assay: Receptor binding, 5-HT1D.
Chain of Serotonin 5-HT1D (P28221 whole entry): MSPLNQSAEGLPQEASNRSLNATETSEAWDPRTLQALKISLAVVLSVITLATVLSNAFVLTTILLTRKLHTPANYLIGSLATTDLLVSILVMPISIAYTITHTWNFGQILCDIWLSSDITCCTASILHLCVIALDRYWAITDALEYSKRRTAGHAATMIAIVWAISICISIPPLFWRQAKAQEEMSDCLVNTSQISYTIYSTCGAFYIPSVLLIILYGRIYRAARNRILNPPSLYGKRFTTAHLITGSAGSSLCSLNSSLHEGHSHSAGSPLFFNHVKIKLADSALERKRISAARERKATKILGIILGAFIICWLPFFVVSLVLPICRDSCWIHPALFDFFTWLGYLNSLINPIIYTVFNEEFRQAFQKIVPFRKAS
Another assay has as its target Serotonin transporter (Homo sapiens, UniProt P31645). The assay can be described thus: Receptor binding, serotonin transporter.
In a further assay the target is T5, α-Adrenergic α2C (Homo sapiens, UniProt P18825).
T5 sequence (P18825 1-462): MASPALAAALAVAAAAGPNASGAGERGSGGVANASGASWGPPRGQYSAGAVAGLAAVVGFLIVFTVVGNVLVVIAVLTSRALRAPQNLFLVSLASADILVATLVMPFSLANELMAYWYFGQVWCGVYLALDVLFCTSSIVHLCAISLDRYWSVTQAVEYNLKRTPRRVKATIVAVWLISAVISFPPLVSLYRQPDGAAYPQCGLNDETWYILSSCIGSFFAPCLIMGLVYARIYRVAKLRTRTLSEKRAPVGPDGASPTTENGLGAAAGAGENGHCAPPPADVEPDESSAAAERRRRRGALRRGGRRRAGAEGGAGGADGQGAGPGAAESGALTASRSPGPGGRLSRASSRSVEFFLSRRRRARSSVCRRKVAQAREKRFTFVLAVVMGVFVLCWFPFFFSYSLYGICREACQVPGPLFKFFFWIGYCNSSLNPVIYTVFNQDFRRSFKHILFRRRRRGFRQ
Nature of the assay: Receptor binding, α2C.

For another assay, the target named is α-Adrenergic α1A (Homo sapiens, UniProt P35348). The assay can be described thus: Receptor binding, α1A.
The next assay deals with Histamine H1 (Homo sapiens, UniProt P35367). Nature of the assay: Receptor binding, H1. Particulars: for Ki: H1.
Chain of Histamine H1 (P35367 whole entry): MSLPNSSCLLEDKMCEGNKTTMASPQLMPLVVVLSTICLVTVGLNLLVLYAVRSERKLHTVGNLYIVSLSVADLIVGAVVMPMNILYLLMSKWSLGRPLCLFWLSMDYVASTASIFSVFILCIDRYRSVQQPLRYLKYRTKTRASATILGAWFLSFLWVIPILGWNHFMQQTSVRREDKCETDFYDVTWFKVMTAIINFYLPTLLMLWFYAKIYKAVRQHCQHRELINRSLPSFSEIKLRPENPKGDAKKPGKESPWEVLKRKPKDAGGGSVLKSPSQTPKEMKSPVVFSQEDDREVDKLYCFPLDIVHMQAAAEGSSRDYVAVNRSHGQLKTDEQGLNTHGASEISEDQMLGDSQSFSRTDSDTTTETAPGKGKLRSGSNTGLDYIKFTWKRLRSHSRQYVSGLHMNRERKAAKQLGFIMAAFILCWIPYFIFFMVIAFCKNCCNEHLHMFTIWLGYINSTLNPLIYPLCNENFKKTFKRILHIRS
A further assay has as its target Serotonin 5-HT2A (Homo sapiens, UniProt P28223). Nature of the assay: Receptor binding, 5-HT2A.
The target in the next assay is Dopamine D5 (Homo sapiens, UniProt P21918). Nature of the assay: Receptor binding, D5.
The target of a further assay is Dopamine D3 (Homo sapiens, UniProt P35462). Nature of the assay: Receptor binding, D3.
Assay [1] has as its target Norepinephrine transporter (Homo sapiens, UniProt P23975). The assay can be described thus: Receptor binding, norepinephrine transporter. Conditions: Transporters: Norepinephrine.
A further assay concerns dopamine receptors. The assay can be described thus: Receptor binding, dopamine receptors. Particulars: any of the dopamine receptors, summary of Table 1.

Read-outs that look alike come from different tables or passages of the source. Some results are limits rather than exact numbers.

Chain of Serotonin 5-HT2B (P41595 whole entry): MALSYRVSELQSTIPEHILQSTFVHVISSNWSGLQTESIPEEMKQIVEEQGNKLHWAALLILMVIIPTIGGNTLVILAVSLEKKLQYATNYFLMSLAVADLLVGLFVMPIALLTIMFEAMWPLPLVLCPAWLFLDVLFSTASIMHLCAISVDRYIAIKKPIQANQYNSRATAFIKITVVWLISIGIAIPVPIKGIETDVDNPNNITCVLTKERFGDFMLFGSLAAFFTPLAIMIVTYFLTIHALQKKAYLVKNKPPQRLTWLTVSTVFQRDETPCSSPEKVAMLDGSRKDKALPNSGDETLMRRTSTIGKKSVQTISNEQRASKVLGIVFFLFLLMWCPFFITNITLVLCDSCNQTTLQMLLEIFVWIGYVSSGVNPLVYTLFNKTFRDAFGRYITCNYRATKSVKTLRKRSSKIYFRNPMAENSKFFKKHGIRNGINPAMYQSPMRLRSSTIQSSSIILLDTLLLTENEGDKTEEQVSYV
Chain of Serotonin 5-HT2A (P28223 whole entry): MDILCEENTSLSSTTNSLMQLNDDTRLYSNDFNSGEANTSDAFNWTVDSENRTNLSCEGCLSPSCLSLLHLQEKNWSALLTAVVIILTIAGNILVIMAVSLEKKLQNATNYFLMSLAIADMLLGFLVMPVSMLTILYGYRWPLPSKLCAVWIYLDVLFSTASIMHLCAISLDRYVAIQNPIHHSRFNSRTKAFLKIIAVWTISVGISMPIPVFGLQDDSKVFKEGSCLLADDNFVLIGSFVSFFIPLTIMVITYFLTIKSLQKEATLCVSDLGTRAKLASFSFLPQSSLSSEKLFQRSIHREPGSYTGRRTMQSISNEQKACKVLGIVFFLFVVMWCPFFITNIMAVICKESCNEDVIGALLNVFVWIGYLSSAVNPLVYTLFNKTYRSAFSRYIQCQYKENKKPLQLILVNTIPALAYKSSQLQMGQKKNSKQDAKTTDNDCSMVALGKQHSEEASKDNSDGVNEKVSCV
Chain of Serotonin transporter (P31645 whole entry): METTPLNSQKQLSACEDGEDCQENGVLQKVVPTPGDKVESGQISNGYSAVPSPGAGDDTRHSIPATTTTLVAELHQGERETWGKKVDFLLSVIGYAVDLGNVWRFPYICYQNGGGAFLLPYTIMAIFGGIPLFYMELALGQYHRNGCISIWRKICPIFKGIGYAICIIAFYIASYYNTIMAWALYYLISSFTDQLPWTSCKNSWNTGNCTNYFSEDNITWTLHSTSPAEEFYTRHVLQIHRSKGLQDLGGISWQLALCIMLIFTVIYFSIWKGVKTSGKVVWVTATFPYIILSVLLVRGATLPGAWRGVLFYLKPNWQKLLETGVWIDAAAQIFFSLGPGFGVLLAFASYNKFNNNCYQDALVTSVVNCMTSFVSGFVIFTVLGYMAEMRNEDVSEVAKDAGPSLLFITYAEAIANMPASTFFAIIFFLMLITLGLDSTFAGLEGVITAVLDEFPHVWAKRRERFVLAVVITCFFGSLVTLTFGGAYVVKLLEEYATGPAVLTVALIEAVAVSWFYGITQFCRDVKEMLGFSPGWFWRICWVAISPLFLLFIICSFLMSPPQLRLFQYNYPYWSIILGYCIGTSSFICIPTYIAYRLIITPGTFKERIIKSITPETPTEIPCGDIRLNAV
Chain of Sigma σ2 (Q5BJF2 whole entry): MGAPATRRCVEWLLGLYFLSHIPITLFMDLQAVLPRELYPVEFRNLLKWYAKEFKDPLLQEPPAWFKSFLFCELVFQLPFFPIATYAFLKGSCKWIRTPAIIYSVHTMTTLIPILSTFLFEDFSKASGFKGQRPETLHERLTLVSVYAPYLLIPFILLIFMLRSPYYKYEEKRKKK
Chain of Serotonin 5-HT1E (P28566 whole entry): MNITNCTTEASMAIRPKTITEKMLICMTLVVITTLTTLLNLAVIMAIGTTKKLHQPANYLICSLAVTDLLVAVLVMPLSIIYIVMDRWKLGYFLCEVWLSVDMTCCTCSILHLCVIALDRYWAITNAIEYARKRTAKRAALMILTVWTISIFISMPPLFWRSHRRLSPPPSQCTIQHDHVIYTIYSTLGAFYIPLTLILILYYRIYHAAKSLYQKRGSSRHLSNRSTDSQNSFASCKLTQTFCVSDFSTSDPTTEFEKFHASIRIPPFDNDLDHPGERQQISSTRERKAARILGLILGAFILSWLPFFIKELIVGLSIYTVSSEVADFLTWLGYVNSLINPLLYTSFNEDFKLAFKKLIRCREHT

Consider `CN1CCc2c(c3cccc4c3n2-c2ccccc2CC4)C1` [Compound 6a, reference compound], for which the Ki was 100 nM on Serotonin 5-HT7; 1360 nM at Serotonin 5-HT1B; 81 nM at Histamine H2; 4460 nM on Muscarinic M1; 413 nM on α-Adrenergic α2B; 596 nM on Serotonin 5-HT1A. Besides, the Ki turned out to be 10 nM at Serotonin 5-HT2C; 750 nM on Serotonin 5-HT5A; 835 nM at Dopamine D2; 155 nM on Serotonin 5-HT6; 2230 nM on Sigma σ2; 3760 nM on Muscarinic M3. In addition, the Ki at Serotonin 5-HT1E is 4040 nM; on Serotonin 5-HT2B, 87 nM; on α-Adrenergic α2A, 228 nM; at α-Adrenergic α1D it was 595 nM; on α-Adrenergic α1B it was 3310 nM; on Muscarinic M5 it was 5170 nM. Also, the inhibition constant (Ki) at Opioid κ stood at 2180 nM; at Serotonin 5-HT1D, 85 nM; at Serotonin transporter (Transporters: Serotonin), 2190 nM; on α-Adrenergic α2C it was 173 nM; at α-Adrenergic α1A it was 2370 nM; on Histamine H1, 50 nM. For the same molecule, the Ki is 24 nM at Serotonin 5-HT2A and 581 nM at Dopamine D5.

Take `CN1CCc2c(c3cccc4c3n2Cc2ccccc2C4)C1` [Compound 13a]: the inhibition constant (Ki) at Serotonin 5-HT7 came to 212 nM; at Serotonin 5-HT1B, 715 nM; on α-Adrenergic α2B, 2190 nM; on Serotonin 5-HT1A, 375 nM; on Serotonin 5-HT6 it was 273 nM; at Dopamine D3, 1500 nM. The Ki at Sigma σ2 is 520 nM; in assay [1], greater than 10000 nM; at Serotonin 5-HT2B, 57 nM; on α-Adrenergic α2A, 1800 nM; on Serotonin 5-HT1D, 29 nM; at Serotonin transporter, 2190 nM. The figures for the Ki at α-Adrenergic α2C, at Histamine H1 and on Serotonin 5-HT2A were 770 nM, 48 nM and 736 nM, respectively. Also, the “binding, in words” value was “moderate binding” at Serotonin 5-HT7 (5-HT7, text summary of Table 1); “moderate binding” at Serotonin 5-HT1A (summary of Table 1); “moderate binding” at Serotonin 5-HT6 (5-HT6, text summary of Table 1); “strong binding” at Serotonin 5-HT2B (summary of Table 1); “strong binding” at Serotonin 5-HT1D (summary of Table 1); “neither of the two compounds 13a and 13b binds significantly” in the assay with dopamine receptors. Also, the “binding, in words” value at Histamine H1 (H1, text summary of Table 1) was “strong binding”.
